# Details: human, in vivo
# Protocol: To evaluate the method for rapid, non-invasive, quantitative assessment of liver function, performed before liver graft procurement, a LiMON liver function monitor, manufactured by Pulsion Medical Systems, Munich, Germany, was used for the assessment of brain-dead donor livers by measuring Indocyanine Green Plasma Disappearance Rates (ICG-PDRs). […] The LiMON monitor 102 measures Indocyanine Green (ICG) 104 clearance from the blood, after the ICG is administered intravenously to the donor, by non-invasive pulse-densitometry using, for example, a finger probe 106.
# Injected ICG 202 is detected by a sensor 204 on the finger 206 from fractional pulsatile changes 208, 210 in optical absorption using LED lights 212. The optical peak absorption of 805 nm as shown in FIG. 2B and 905 nm as shown in FIG. 2C allows continuous measurements of ICG-PDR. The clearance of the injected dye from the blood (mg/l) can be calculated as:
# The ICG-PDR is calculated as the ICG clearance (CICG) over time, as shown in the graph in FIG. 3.
# Consecutive adult brain-dead donors in the local donation service area, whose livers were offered to the study center, were assessed for liver function using the methods of the current disclosure, after permission was acquired. Immediately prior to organ procurement, indocyanine green elimination tests were conducted using the non-invasive liver function monitoring system shown in FIG. 1 and FIG. 2A. Each patient received an ICG finger clip connected to a liver function monitor. A dose of 0.25 mg/kg ICG (ICG—PULSION, Pulsion Medical Systems) was given through a central vein as a bolus and immediately flushed with 10 mL of normal saline. All of the ICG-PDR measurements were acquired using the LiMON liver function monitor manufactured by Pulsion Medical Systems, Munich, Germany.
smiles,measurement,value
"CC1(C)C(/C=C/C=C/C=C/C=C2\N(CCCCS(=O)(=O)O)c3ccc4ccccc4c3C2(C)C)=[N+](CCCCS(=O)(=O)[O-])c2ccc3ccccc3c21 [ICG, Indocyanine Green]","IGG-PDR, Mean (SD), Accepted",24.1 (6.7) %/min
same,"IGG-PDR, Mean (SD), Rejected",17.9 (4.7) %/min
same,"PDR, sample PULSION-LiMON ICG trace of a non-acceptable liver",12.9 % clearance per minute
same,"PDR, sample PULSION-LiMON ICG trace of an accepted liver",21.5 % clearance per minute

# Reference: patent publication US20170000405A1, “RAPID, REPRODUCIBLE, NON-INVASIVE PREDICTOR OF CADAVERIC DONOR LIVER GRAFT UTILIZATION” (THE REGENTS OF THE UNIVERSITY OF CALIFORNIA, priority 2014, published 2017)
